Experimental data taken from patent US8648065B2, “Antibacterial medicinal composition of enhanced oral absorptivity” (Meiji Seika Pharma Co., Ltd., priority 2002, dated 2014).

Experiment: Oral absorbability of cefditoren pivoxil suspensions in dogs
Format: in vivo
Details: suspension of crystals as compared to an amorphous suspension
From the text: On the other hand, since amorphous cefditoren pivoxil is apt to change into a crystalline state in a solution, an antibiotic pharmaceutical composition comprising amorphous cefditoren pivoxil still needs to be improved.

- Oral absorbability in dogs (in words): extremely low oral absorbability
Compound: CO/N=C(\C(=O)N[C@@H]1C(=O)N2C(C(=O)OCOC(=O)C(C)(C)C)=C(/C=C\c3scnc3C)CS[C@H]12)c1csc(N)n1 [cefditoren pivoxil, (−)-(6R,7R)-7-[(Z)-2-(2-aminothiazol-4-yl)-2-methoxyiminoacetamido]-3-[(Z)-2-(4-methylthiazol-5-yl)ethenyl]-8-oxo-5-thia-1-azabicyclo[4.2.0]oct-2-ene-2-carboxylic acid 2,2-dimethylpropionyloxymethyl ester]
